This is an account of results in US10849847B2, “Compositions and methods for treating rosacea and acne” (Foamix Pharmaceuticals Ltd., priority 2016, dated 2020).

The conditions of data set [1]: cited from earlier work.
Data set [2] can be described thus: Doxycycline Hyclate Compatibility Test. It counts as physicochemical. To be noted: for Effect of anti-oxidant on oxidation of Doxycycline Hyclate: waterless medium of propylene glycol and PEG 200. The protocol: (§1) A similar compatibility study was conducted for Doxycycline Hyclate and Doxycycline Monohydrate.
(§2) Different compositions of hydrophilic and hydrophobic solvents containing Doxycycline Hyclate (Set I and Set II) and Doxycycline Monohydrate (Set III) were prepared by weighing the antibiotic in a glass vial and shaking overnight with each solvent investigated.
Group II included Doxycycline Hyclate mixed with various vehicles with addition of antioxidants like alpha tocopherol, butylated hydroxytoluene (BHT), and ascorbic acid.

Data set [3] in a line: Doxycycline Monohydrate Compatibility Test. It counts as physicochemical. The protocol:
as §1, §2
A similar compatibility test was performed on another form of Doxycycline—Doxycycline Monohydrate.

The conditions of data set [4]: for Effect of anti-oxidant on oxidation of Minocycline HCl: waterless medium of propylene glycol and PEG 200. On the procedure:
The ratio between MCH and the tested excipient is detailed below. Visual inspection was the major criterion for indication of compatibility. The color of intact MCH suspension is pale yellow; and any change of color (e.g., to dark orange, red, green, brown and black) indicates oxidation or degradation.
Other than hydrogenated castor oil, beeswax, paraffin and hard fat, the aforesaid items listed are oily emollients.
Additives were tested for compatibility with MCH. […] In parallel, antioxidants were added to the MCH suspensions comprising water.

Data set [5] is described as follows: Doxycycline Monohydrate Compatibility Test. The class given is physicochemical. To be noted: for Effect of anti-oxidant on oxidation of Doxycycline Monohydrate: waterless medium of propylene glycol and PEG 200.
Data set [6] relates to papulopustular rosacea. The note with it: cited from earlier work; for IGA = Clear/Almost Clear / Inflammatory Lesions: Mean Absolute Reduction / ≥2 IGA Grade Reduction: Week 16.
For data set [7] the following is noted: in vitro; cited from earlier work.
[8] abbreviates: mixtures stored at 25° C., 40° C. and 50° C. for two weeks.
Where [9] appears, read: tested after the storage for up to 3 weeks.

Read-outs that look alike come from different tables or passages of the source.

Consider Doxycycline hyclate, for which, in data set [1], the Lipid solubility result was “high degree of lipid solubility”. The Solubility result in data set [1] (in solutions of alkali hydroxides and carbonates) is given as “soluble”; in data set [1] (in water), “soluble”.

`CCO` [Ethanol]: the “Compatibility with Doxycycline Hyclate” value is “stable” in data set [2] (setting [8]) and “Yes” in data set [2] (setting [9]). The “Compatibility with Doxycycline Monohydrate” value was “oxidized” in data set [3] (setting [8]) and “No” in data set [3] (setting [9]). Also, the “Compatibility with MCH” value in data set [4] (hydrophilic solvents, MCH:excipient 1:250, 25° C. and 40° C., maximum sixty days) is “incompatible”. Besides, the “Compatibility with Minocycline HCl (observations)” value in data set [4] (on dissolution / storage) was “changed their color from yellow to orange”. Further, the “Compatibility with Minocycline HCl” value in data set [4] (setting [9]) is listed as “No”. The “Compatibility Results” value in data set [5] (Mixtures of 1.04% w/w of Doxycycline Monohydrate stored at 25° C., 40° C., and 50° C. for two weeks) is “Non compatible”. Also, the “Visual inspection after the storage at 25° C.” value in data set [5] (Mixtures of 1.04% w/w of Doxycycline Monohydrate, 25° C., two weeks) is given as “Brown”. In addition, the “Visual inspection after the storage at 40° C.” value in data set [5] (Mixtures of 1.04% w/w of Doxycycline Monohydrate, 40° C., two weeks) was “Brown”. The “Visual inspection after the storage at 50° C.” value in data set [5] (Mixtures of 1.04% w/w of Doxycycline Monohydrate, 50° C., two weeks) is “Black”. The “Visual inspection at T-0” value in data set [5] (Mixtures of 1.04% w/w of Doxycycline Monohydrate, T-0) is recorded as “bright yellow”.

For the molecule `Cc1c(C)c2c(c(C)c1O)CC[C@@](C)(CCC[C@H](C)CCC[C@H](C)CCCC(C)C)O2` [alpha-tocopherol], in data set [2], the “Effect of anti-oxidant on oxidation of Doxycycline Hyclate” value is reported as “did not prevent the oxidation”. In data set [4], the “Effect of antioxidant on MCH degradation” value is “did not prevent MCH degradation” and the “Effect of anti-oxidant on oxidation of Minocycline HCl” value is “did not prevent the oxidation”. For the same molecule, the “Effect of anti-oxidant on oxidation of Doxycycline Monohydrate” value in data set [5] is given as “did not prevent the oxidation”.

On to `C[C@H]1c2cccc(O)c2C(=O)C2=C(O)[C@]3(O)C(=O)C(C(N)=O)=C(O)[C@@H](N(C)C)[C@@H]3[C@@H](O)[C@@H]21` [Oracea], for which, in data set [6] (Study 1, Active), the “Baseline IGA Moderate” value is 52.8%, the “Baseline IGA Severe” value was 40.9%, the “Inflammatory Lesions: Baseline No. of lesions” value is on record as 19.5 and the “IGA = Clear/Almost Clear” value is reported as 30.7%. Also, in data set [6] (Study 1, Active), the “Inflammatory Lesions: Mean Absolute Reduction” value was −11.8 and the “≥2 IGA Grade Reduction” value was 45.7%. Further, in data set [6] (Study 2, Active), the “Baseline IGA Moderate” value is 54.2%, the “Baseline IGA Severe” value is 33.8%, the “Inflammatory Lesions: Baseline No. of lesions” value is 20.5 and the “IGA = Clear/Almost Clear” value is listed as 14.8%. Further, in data set [6] (Study 2, Active), the “Inflammatory Lesions: Mean Absolute Reduction” value is −9.5 and the “≥2 IGA Grade Reduction” value is on record as 22.5%.

On to `O=C1O[C@H]([C@@H](O)CO)C(O)=C1O` [ascorbic acid], for which, in data set [2], the “Effect of anti-oxidant on oxidation of Doxycycline Hyclate” value is listed as “did not prevent the oxidation”. The “Effect of anti-oxidant on oxidation of Minocycline HCl” value in data set [4] is “did not prevent the oxidation”. Moreover, in data set [5], the “Effect of anti-oxidant on oxidation of Doxycycline Monohydrate” value is “did not prevent the oxidation”.

`CN(C)c1ccc(O)c2c1C[C@H]1C[C@H]3[C@H](N(C)C)C(O)=C(C(N)=O)C(=O)[C@@]3(O)C(O)=C1C2=O` [minocycline]: the “Skin delivery of minocycline on topical administration” value in data set [7] was “appreciable amounts of the drug to its target site of action (the skin)”.
